Where only a bound is given, the exact number is not on record here.

The target of the assay is ACC2 (Homo sapiens, UniProt O00763). Nature of the assay: In vitro ACC2 inhibition assay (ADP-Glo). In kind it is biochemical. The settings on record: read-out: ACC2. The procedure: An exemplary procedure for the in vitro ACC inhibition assay, which can be used to determine the inhibitory action of compounds of the invention toward either ACC1 or ACC2, follows. The ADP-Glo™ Kinase Assay kit from Promega was used. The ADP-Glo™ Kinase Assay is a luminescent ADP detection assay to measure enzymatic activity by quantifying the amount of ADP produced during an enzyme reaction. The assay is performed in two steps; first, after the enzyme reaction, an equal volume of ADP-Glo™ Reagent is added to terminate the reaction and deplete the remaining ATP. Second, the Kinase Detection Reagent is added to simultaneously convert ADP to ATP and allow the newly synthesized ATP to be measured using a luciferase/luciferin reaction. Luminescence can be correlated to ADP concentrations by using an ATP-to-ADP conversion curve. The detailed procedure is as follows. 50 μL of the compound being tested (600 uM in DMSO) was added to a 384-well dilution plate. The compound was diluted 1:3 in succession in DMSO for each row for 11 wells. 0.5 μL ACC2 working solution was added to 384-well white Optiplate assay plate. 0.5 μL diluted compound solution in each column from step 2 to assay plate, each row containing 2 replicates. […] The plates were incubated at room temperature for 15 minutes. 5 μL substrate working solution was added to each well to initiate reaction. […] Plates were incubated at room temperature for 60 minutes. 10 μL ADP glo reagent was added. Plates were incubated at room temperature for 40 minutes. 20 μL kinase detection reagent was added.
ACC2, sequence (O00763 whole entry, species assumed): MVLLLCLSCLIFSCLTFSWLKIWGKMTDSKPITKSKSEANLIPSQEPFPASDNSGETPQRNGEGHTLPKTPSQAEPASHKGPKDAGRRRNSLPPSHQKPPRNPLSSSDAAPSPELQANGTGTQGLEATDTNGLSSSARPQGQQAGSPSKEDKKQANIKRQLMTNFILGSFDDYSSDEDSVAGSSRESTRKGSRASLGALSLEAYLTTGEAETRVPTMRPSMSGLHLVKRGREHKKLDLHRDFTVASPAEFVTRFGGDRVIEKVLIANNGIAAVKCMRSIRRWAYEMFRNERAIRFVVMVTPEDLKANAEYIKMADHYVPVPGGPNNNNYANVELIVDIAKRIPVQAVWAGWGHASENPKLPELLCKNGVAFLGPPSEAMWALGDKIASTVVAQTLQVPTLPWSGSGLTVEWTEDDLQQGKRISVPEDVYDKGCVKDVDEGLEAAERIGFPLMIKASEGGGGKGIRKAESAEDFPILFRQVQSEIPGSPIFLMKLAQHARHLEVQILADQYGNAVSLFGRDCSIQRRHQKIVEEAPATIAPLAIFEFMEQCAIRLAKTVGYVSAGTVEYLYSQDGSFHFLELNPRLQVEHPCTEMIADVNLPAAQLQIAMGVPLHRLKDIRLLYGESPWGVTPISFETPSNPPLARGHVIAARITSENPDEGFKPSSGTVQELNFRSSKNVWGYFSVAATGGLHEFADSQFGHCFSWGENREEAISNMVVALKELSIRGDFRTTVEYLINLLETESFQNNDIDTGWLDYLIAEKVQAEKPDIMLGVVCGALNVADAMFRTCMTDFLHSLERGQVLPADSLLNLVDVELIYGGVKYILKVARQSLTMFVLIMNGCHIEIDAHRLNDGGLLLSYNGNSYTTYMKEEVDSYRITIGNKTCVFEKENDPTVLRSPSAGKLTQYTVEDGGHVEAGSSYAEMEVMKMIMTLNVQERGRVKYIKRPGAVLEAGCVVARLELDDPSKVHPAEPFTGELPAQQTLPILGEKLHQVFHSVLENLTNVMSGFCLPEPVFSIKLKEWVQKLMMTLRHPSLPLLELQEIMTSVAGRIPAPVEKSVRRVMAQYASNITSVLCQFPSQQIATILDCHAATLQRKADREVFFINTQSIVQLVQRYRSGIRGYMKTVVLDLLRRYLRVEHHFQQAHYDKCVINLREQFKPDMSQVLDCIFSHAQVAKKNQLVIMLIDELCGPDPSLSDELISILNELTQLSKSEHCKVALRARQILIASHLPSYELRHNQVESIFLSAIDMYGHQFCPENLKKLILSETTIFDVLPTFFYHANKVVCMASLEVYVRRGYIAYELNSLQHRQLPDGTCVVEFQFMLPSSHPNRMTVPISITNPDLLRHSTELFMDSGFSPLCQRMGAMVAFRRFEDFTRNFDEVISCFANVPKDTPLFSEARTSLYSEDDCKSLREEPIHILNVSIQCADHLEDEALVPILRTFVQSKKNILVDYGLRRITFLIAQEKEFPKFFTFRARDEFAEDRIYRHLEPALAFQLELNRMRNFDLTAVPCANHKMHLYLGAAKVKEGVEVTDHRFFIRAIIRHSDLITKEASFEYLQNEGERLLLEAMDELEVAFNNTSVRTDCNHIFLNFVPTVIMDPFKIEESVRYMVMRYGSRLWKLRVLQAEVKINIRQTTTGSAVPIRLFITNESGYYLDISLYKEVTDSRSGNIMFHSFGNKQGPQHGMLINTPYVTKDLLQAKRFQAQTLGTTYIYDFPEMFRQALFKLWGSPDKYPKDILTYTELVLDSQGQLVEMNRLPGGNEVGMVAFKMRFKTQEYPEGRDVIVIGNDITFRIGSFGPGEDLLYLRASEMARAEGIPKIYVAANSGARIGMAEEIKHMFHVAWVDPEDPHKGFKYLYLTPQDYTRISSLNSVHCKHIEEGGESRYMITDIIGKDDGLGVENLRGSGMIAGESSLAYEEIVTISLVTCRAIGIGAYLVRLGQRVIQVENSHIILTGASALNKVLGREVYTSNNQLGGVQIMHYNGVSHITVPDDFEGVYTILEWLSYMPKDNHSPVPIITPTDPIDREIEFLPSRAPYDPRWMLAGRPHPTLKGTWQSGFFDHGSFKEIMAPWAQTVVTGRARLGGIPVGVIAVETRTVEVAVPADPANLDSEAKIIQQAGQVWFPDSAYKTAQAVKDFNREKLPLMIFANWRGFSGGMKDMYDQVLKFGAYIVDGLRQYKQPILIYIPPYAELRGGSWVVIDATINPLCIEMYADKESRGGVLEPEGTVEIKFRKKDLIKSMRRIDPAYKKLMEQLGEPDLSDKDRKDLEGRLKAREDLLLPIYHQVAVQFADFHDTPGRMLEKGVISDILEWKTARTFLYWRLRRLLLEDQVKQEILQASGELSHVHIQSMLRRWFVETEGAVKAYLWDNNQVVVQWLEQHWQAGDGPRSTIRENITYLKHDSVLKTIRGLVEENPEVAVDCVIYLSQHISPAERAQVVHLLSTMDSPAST
Data for each concentration, as well as the positive and negative controls were averaged, and the standard deviation calculated. Percent inhibition was calculated by the formula: 100× (average negative control−compound)/(average negative control−average positive control). The IC50 for each compound was calculated by fitting the data with a non-linear regression equation: Y=Bottom+(Top-Bottom)/(1+10^((Log IC50−X)*HillSlope)), where X is the log of compound concentration and Y is percent inhibition.
The compound numbers correspond to the compound numbers in Table 1.
Background: In ADP-Glo the light output rises with the ADP produced.
In the case of `Cc1c(C(=O)OCCO)sc2c1c(=O)n(CCO)c(=O)n2CCc1ccccc1` [I-42, 2-hydroxyethyl 3-(2-hydroxyethyl)-5-methyl-2,4-dioxo-1-(2-phenylethyl)-1H,2H,3H,4H-thieno[2,3-d]pyrimidine-6-carboxylate], the IC50 fell in the range of 20 to 50 µM.
Consider `CCOC(=O)c1sc2c(c1C)c(=O)n(CC#N)c(=O)n2CCc1ccccc1` [I-43], for which the IC50 was 5 to 20 µM.
Turning to `CCOC(=O)c1sc2c(c1C)c(=O)n(CCO)c(=O)n2CCc1nc2ccccc2s1` [I-44], the IC50 is over 50 µM.
With `Cc1c(C(N)=O)sc2c1c(=O)n(CCO)c(=O)n2CCc1ccccc1` [I-47], the IC50 is over 50 µM.
On to `CCOC(=O)c1sc2c(c1C)c(=O)n(CC(=O)NCCO)c(=O)n2CCc1ccccc1` [I-48, ethyl 3-[[(2-hydroxyethyl)carbamoyl]methyl]-5-methyl-2,4-dioxo-1-(2-phenylethyl)-1H,2H,3H,4H-thieno[2,3-d]pyrimidine-6-carboxylate], for which the IC50 lay within 5 to 20 µM.
Take `CCOC(=O)c1sc2c(c1C)c(=O)n(CCO)c(=O)n2CCc1nccs1` [I-49]: the IC50 was over 50 µM.
Take `CCOC(=O)c1sc2c(c1C)c(=O)n(CC(=O)O)c(=O)n2Cc1ccc2c(c1)OCO2` [I-50, 2-[1-(2H-1,3-benzodioxol-5-ylmethyl)-6-(ethoxycarbonyl)-5-methyl-2,4-dioxo-1H,2H,3H,4H-thieno[2,3-d]pyrimidin-3-yl]acetic acid]: the IC50 is over 50 µM.
To `CCOC(=O)c1sc2c(c1C)c(=O)n(CCO)c(=O)n2Cc1ccc2[nH]ccc2c1` [I-51, ethyl 3-(2-hydroxyethyl)-1-(1H-indol-5-ylmethyl)-5-methyl-2,4-dioxo-1H,2H,3H,4H-thieno[2,3-d]pyrimidine-6-carboxylate] belongs over 50 µM; to `CCOC(=O)c1sc2c(c1C)c(=O)n(CC(=O)O)c(=O)n2CCc1ccc(I)cc1` [I-53, 2-[6-(ethoxycarbonyl)-1-[2-(4-iodophenyl)ethyl]-5-methyl-2,4-dioxo-1H,2H,3H,4H-thieno[2,3-d]pyrimidin-3-yl]acetic acid], 5 to 20 µM; to `CCOC(=O)c1sc2c(c1C)c(=O)n(CC(=O)O)c(=O)n2CCc1ccccc1Br` [I-54, 2-[1-[2-(2-bromophenyl)ethyl]-6-(ethoxycarbonyl)-5-methyl-2,4-dioxo-1H,2H,3H,4H-thieno[2,3-d]pyrimidin-3-yl]acetic acid], 5 to 20 µM.
`CCOC(=O)c1sc2c(c1C)c(=O)n(C(C)C(=O)O)c(=O)n2CCc1ccccc1` (stereo not shown) [I-56, 2-[6-(ethoxycarbonyl)-5-methyl-2,4-dioxo-1-(2-phenylethyl)-1H,2H,3H,4H-thieno[2,3-d]pyrimidin-3-yl]propanoic acid]: the IC50 was under 5 µM.
For the compound `Cc1c(C(=O)NCCO)sc2c1c(=O)n(CCO)c(=O)n2CCc1ccccc1` [I-57], the IC50 was over 50 µM.
For `Cc1csc2c1c(=O)n(CCO)c(=O)n2CCc1ccccc1` [I-58], the IC50 is over 50 µM.
Consider `O=c1c2ccsc2n(CCc2ccccc2)c(=O)n1CCO` [I-59], for which the IC50 was over 50 µM.
Regarding `CCOC(=O)c1sc2c(c1C)c(=O)n(CC(C)O)c(=O)n2CCc1ccccc1` (stereo not shown) [I-62, ethyl 3-(2-hydroxypropyl)-5-methyl-2,4-dioxo-1-(2-phenylethyl)-1H,2H,3H,4H-thieno[2,3-d]pyrimidine-6-carboxylate], the IC50 is 5 to 20 µM.
As for `Cc1csc2c1c(=O)n(CC(=O)O)c(=O)n2CCc1ccccc1` [I-63], the IC50 fell in the range of 20 to 50 µM.
With `CCOC(=O)c1sc2c(c1C)c(=O)n(CCO)c(=O)n2Cc1ccc2ccn(C)c2c1` [I-64], the IC50 is over 50 µM.
For the compound `O=C(O)Cn1c(=O)c2ccsc2n(CCc2ccccc2)c1=O` [I-65, 2-[2,4-dioxo-1-(2-phenylethyl)-1H,2H,3H,4H-thieno[2,3-d]pyrimidin-3-yl]acetic acid], the IC50 was over 50 µM.
As for `[2H]c1ccc(CCn2c(=O)n(CC(=O)O)c(=O)c3c(C)c(C(=O)OCC)sc32)cc1` [I-66, 2-(1-(4-deuterophenethyl)-6-(ethoxycarbonyl)-5-methyl-2,4-doxo-1,2-dihydrothieno[2,3-d]pyrimidin-3(4H)-yl)acetic acid], the IC50 was under 5 µM.
